From publication PMC10713593, “Staphylococcus aureus functional amyloids catalyze degradation of β-lactam antibiotics” (Nature Communications, 2023) come the findings set out here.

Data set [1] in a line: Nitrocefin hydrolysis kinetics (absorbance of degraded nitrocefin at 480 nm; initial rates V0, Michaelis-Menten fit). In kind it is biochemical. The arrangement: Initial nitrocefin-degradation reaction rate, V0: unit not given here. Particulars: nitrocefin 60 µM; for Initial nitrocefin-degradation reaction rate, V0: Hepes pH 7.4, average of the six runs; for nitrocefin degradation yield (turnover): PSMα assemblies 350 µM, Hepes 50 mM pH 7.4, 20 °C, A480, monitored 2 h (Fig. 2a). The protocol:
Nitrocefin, a β-lactam widely used as a surrogate substrate of Penicillin in β-lactamase activity assay, was used as a substrate. NC degradation was monitored for 2 h. Nitrocefin stock solution was dissolved in acetonitrile (20 mM) and then diluted with Hepes buffer (50 mM, pH 7.4) to nitrocefin concentration of 360 µM (further dilutions to lower concentrations were made with the 360 µM NC stock). All nitrocefin samples were kept on ice in cold conditions and any further dilution or mixing was performed in ice-cold conditions to avoid self-hydrolysis background reaction. […] Immediately after mixing the samples, the plate was transferred to 20̊ °C pre-cooled plate reader (Multiskan GO, Thermo Scientific, Waltham, MA) and shaken slowly for 10 s. Then, the absorbance of degraded nitrocefin was measured for 2 h at interval of 20 s at λ = 480 nm. Initial production rates (V0) were calculated by slope of the initial linear range of degraded-nitrocefin production at the first 15 min. The reported results are and average of at least five separate measurements (the exact number of repeats, N, is reported next to the values). Each experiment also included blank samples of nitrocefin substrate diluted with buffer instead of PSMα. […] The initial rate calculations were performed while also subtracting the self-degradation of the substrate, to ensure that this product absorbance is a result of PSMα presence.
The initial rates of degraded-nitrocefin production were calculated from the slopes of the first 15 min of measurement as reported above. The initial rates (V0) were fitted using non-linear regression applied with the solver function in excel, either to Michalis–Menten equation V=Vmax.[S]/(KM+S) Where Vmax. Stands for maximal reaction rate, KM stands for Michalis–Menten constant, [S] stands for the substrate molar concentration. Each initial rate value was presented as average ± SEM. The kinetic parameters were calculated by fitting the data to MM model using non-linear regression, and the confidence intervals for each parameter were calculated accordingly.

In data set [2] the target is PSMα3 fibrils (Staphylococcus aureus, UniProt A9JX07). Description: LC-MS degradation of amoxicillin and penicillin G with PSMα3 fibrils or buffer. Type of data set: biochemical. Also noted: key to Amoxicillin (remaining) / Degraded Amoxicillin (PSMa3) / Degraded Amoxicillin: % relative abundance from extracted ion chromatogram peak areas. Conditions: for Amoxicillin (remaining) / Degraded Amoxicillin: buffer only (blank); for Amoxicillin (remaining) / Degraded Amoxicillin / Amoxicillin (PSMa3) (remaining) / Degraded Amoxicillin (PSMa3): LC-MS; for Amoxicillin (remaining) / Amoxicillin (PSMa3) (remaining): 366 peak as share of 366+384 sum; for Degraded Amoxicillin / Degraded Amoxicillin (PSMa3): 384 peak as share of 366+384 sum. The procedure: Amoxicillin or Penicillin solutions were dissolved in Hepes buffer (50 mM, pH 7.4) in concentration of 50 µM. PSMα3 solution in concentration of 1.54 mM was dissolved in DIW and Hepes buffer was added to the final concentration of 50 mM. The antibiotics’ solutions and preincubated PSMα3 solutions were mixed to final PSMα3 […] 180 µL organic solvent to stop the reaction (acetonitrile for Amoxicillin, methanol in the case of Penicillin). The samples were collected and injected sequentially into the LC-MS analysis.
PSMα3 fibrils, sequence (A9JX07 whole entry, looked up): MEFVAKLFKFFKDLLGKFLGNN
Waters ACQUITY UPLC I-Class PLUS System coupled with high-resolution Thermo Orbitrap Exploris 240 mass-spectrometer were used for analysis of Amoxicillin and Penicillin-G over time. 1 µL of each sample was injected into the reverse-phase Acquity UPLC BEH C18 1.7 µm, 2.1 × 50 mm column (Waters) and run under a gradient program (Table S2 for Amoxicillin, Table S3 for Penicillin-G). The samples were ionized using soft electrospray ionization in positive mode and detected in a full scan mode in range from 60 to 900 m/z with a resolution of 240,000 Full Width at Half Maximum. MS was tuned according to the manufacture recommendations. Relative abundance of the intact/degraded compounds was calculated by peak area of the extracted ion chromatogram: for Amoxicillin 366.1–366.12, and degraded-Amoxicillin 384.1–384.13 m/z, Penicillin-G 335.1–335.12, for degraded-Penicillin-G 353.1–353.12, for (Figs. S13 and S14, respectively).

For the compound `CC[C@H](C)[C@H](NC(=O)CNC(=O)[C@@H](N)CCSC)C(=O)N[C@H](C(=O)N[C@@H](C)C(=O)NCC(=O)N[C@H](C(=O)N[C@H](C(=O)N[C@@H](CCCCN)C(=O)N[C@@H](Cc1ccccc1)C(=O)N[C@H](C(=O)N[C@@H](CCCCN)C(=O)NCC(=O)N[C@@H](CC(C)C)C(=O)N[C@H](C(=O)N[C@@H](CCC(=O)O)C(=O)N[C@@H](CCCCN)C(=O)N[C@@H](Cc1ccccc1)C(=O)N[C@H](C(=O)NCC(=O)N[C@@H](CCCCN)C(=O)O)[C@@H](C)O)[C@@H](C)CC)[C@@H](C)CC)[C@@H](C)CC)[C@@H](C)CC)[C@@H](C)CC` [PSMα2], the ATR-FTIR amide-I peak/maximum is 1650 cm⁻¹. Besides, the “Initial nitrocefin-degradation reaction rate, V0” value in data set [1] (PSMα 4.01424 uM) is 1.158. Also, in data set [1] (PSMα 6.02136 uM), the “Initial nitrocefin-degradation reaction rate, V0” value is on record as -0.4109. The “Initial nitrocefin-degradation reaction rate, V0” value in data set [1] (PSMα 9.03205 uM) turned out to be 0.9321. In addition, the “Initial nitrocefin-degradation reaction rate, V0” value in data set [1] (PSMα 13.5481 uM) turned out to be 0.6055. The “Initial nitrocefin-degradation reaction rate, V0” value in data set [1] (PSMα 20.3221 uM) amounted to 1.35. The “Initial nitrocefin-degradation reaction rate, V0” value in data set [1] (PSMα 30.4832 uM) was 1.3793. The “Initial nitrocefin-degradation reaction rate, V0” value in data set [1] (PSMα 45.7247 uM) is listed as 2.588. Further, in data set [1] (PSMα 68.5871 uM), the “Initial nitrocefin-degradation reaction rate, V0” value is reported as 11.4228. Also, in data set [1] (PSMα 102.881 uM), the “Initial nitrocefin-degradation reaction rate, V0” value was 36.0382. The “Initial nitrocefin-degradation reaction rate, V0” value in data set [1] (PSMα 154.321 uM) was 59.4111. In addition, the “Initial nitrocefin-degradation reaction rate, V0” value in data set [1] (PSMα 231.481 uM) amounted to 94.344. For the same compound, the “Initial nitrocefin-degradation reaction rate, V0” value in data set [1] (PSMα 347.222 uM) worked out at 117.315. Moreover, the “nitrocefin degradation yield (turnover)” value in data set [1] was around 100%.

Compound `CC[C@H](C)[C@H](NC(=O)[C@H](C)NC(=O)[C@@H](N)CCSC)C(=O)N[C@H](C(=O)NCC(=O)N[C@H](C(=O)N[C@H](C(=O)N[C@H](C(=O)N[C@@H](CCCCN)C(=O)N[C@H](C(=O)N[C@H](C(=O)N[C@@H](CCCCN)C(=O)N[C@@H](C)C(=O)N[C@H](C(=O)N[C@H](C(=O)N[C@@H](CC(=O)O)C(=O)N[C@H](C(=O)N[C@@H](Cc1ccccc1)C(=O)N[C@@H](C)C(=O)N[C@@H](CCCCN)C(=O)O)[C@@H](C)CC)[C@@H](C)CC)[C@@H](C)CC)[C@@H](C)CC)[C@@H](C)CC)[C@@H](C)CC)[C@@H](C)CC)[C@@H](C)O)C(C)C` [PSMα4] gave an ATR-FTIR amide-I peak/maximum of 1620 cm⁻¹. Further, in data set [1] (PSMα 4.01424 uM), the “Initial nitrocefin-degradation reaction rate, V0” value came out at 0.5451. In data set [1] (PSMα 6.02136 uM), the “Initial nitrocefin-degradation reaction rate, V0” value was found to be 0.5496. Besides, the “Initial nitrocefin-degradation reaction rate, V0” value in data set [1] (PSMα 9.03205 uM) was -0.2169. Besides, in data set [1] (PSMα 13.5481 uM), the “Initial nitrocefin-degradation reaction rate, V0” value came out at 1.372. Moreover, in data set [1] (PSMα 20.3221 uM), the “Initial nitrocefin-degradation reaction rate, V0” value turned out to be 0.8016. Also, in data set [1] (PSMα 30.4832 uM), the “Initial nitrocefin-degradation reaction rate, V0” value is recorded as 1.8. In data set [1] (PSMα 45.7247 uM), the “Initial nitrocefin-degradation reaction rate, V0” value was 3.313. The “Initial nitrocefin-degradation reaction rate, V0” value in data set [1] (PSMα 68.5871 uM) is reported as -1.824. The “Initial nitrocefin-degradation reaction rate, V0” value in data set [1] (PSMα 102.881 uM) came to 15.0899. Also, the “Initial nitrocefin-degradation reaction rate, V0” value in data set [1] (PSMα 154.321 uM) stood at 17.903. Moreover, in data set [1] (PSMα 231.481 uM), the “Initial nitrocefin-degradation reaction rate, V0” value turned out to be 15.5904. Further, the “Initial nitrocefin-degradation reaction rate, V0” value in data set [1] (PSMα 347.222 uM) was 26.4203. Besides, the “nitrocefin degradation yield (turnover)” value in data set [1] is ~ 15%.

Regarding `CC1(C)S[C@@H]2[C@H](NC(=O)[C@H](N)c3ccc(O)cc3)C(=O)N2[C@H]1C(=O)O` [amoxycillin], the “hydrolysis by PSMα3 fibrils versus spontaneous degradation” value in data set [2] (antibiotic 40 µM, PSMα3 fibrils 308 µM, Hepes 50 mM pH 7.4, LC-MS (Fig. 6)) was “significantly higher extent compared to the spontaneous degradation”. Also, the “Amoxicillin (remaining)” value worked out at 81.4445 in data set [2] (0h); 80.1864 in data set [2] (4h); 79.6866 in data set [2] (8h); 78.9455 in data set [2] (12h); 78.1892 in data set [2] (24h); 69.9317 in data set [2] (60h). Moreover, the “Amoxicillin (remaining)” value in data set [2] (72h) amounted to 68.3628; in data set [2] (80h), 59.5525. Moreover, the “Degraded Amoxicillin” value in data set [2] (0h) turned out to be 18.5555; in data set [2] (4h) it was 19.8136; in data set [2] (8h), 20.3134; in data set [2] (12h), 21.0545; in data set [2] (24h), 21.8108; in data set [2] (60h), 30.0683. The results for the “Degraded Amoxicillin” value in data set [2] (72h) and in data set [2] (80h) were 31.6372 and 40.4475, respectively. Also, the “Amoxicillin (PSMa3) (remaining)” value in data set [2] (with PSMa3, 0h) stood at 79.7112; in data set [2] (with PSMa3, 4h) it was 78.2636; in data set [2] (with PSMa3, 8h), 74.8273; in data set [2] (with PSMa3, 12h) it was 70.3173; in data set [2] (with PSMa3, 24h), 62.2462; in data set [2] (with PSMa3, 60h), 12.8041. The “Amoxicillin (PSMa3) (remaining)” value in data set [2] (with PSMa3, 72h) is 5.039; in data set [2] (with PSMa3, 80h), 3.011. Besides, the “Degraded Amoxicillin (PSMa3)” value in data set [2] (with PSMa3, 0h) is given as 20.2888; in data set [2] (with PSMa3, 4h), 21.7364; in data set [2] (with PSMa3, 8h) it was 25.1727; in data set [2] (with PSMa3, 12h), 29.6827; in data set [2] (with PSMa3, 24h), 37.7538; in data set [2] (with PSMa3, 60h), 87.1959. The “Degraded Amoxicillin (PSMa3)” value was 94.9606 in data set [2] (with PSMa3, 72h) and 96.9892 in data set [2] (with PSMa3, 80h).
